# Experimental data as given in ChEMBL document CHEMBL5034014, “Melanocortin 1 Receptor Agonists Based on a Bivalent, Bicyclic Peptide Framework” (J Med Chem, 2021).
# pEC50, pIC50, pKi: −log10 of the molar value. Bridge positions count the residues as written; N and C are the ends. Square brackets hold non-standard residues; d marks the D form. Peptide text beside a SMILES is read from it. NMeW = CN[C@@H](Cc1c[nH]c2ccccc12)C(=O)O; NMeR = CN[C@@H](CCCNC(=N)N)C(=O)O
# Tests used:
# Melanocortin receptor 4 [1] = molecular target: T1, Melanocortin receptor 4 (Homo sapiens, UniProt P32245); experiment: Agonist activity at human melanocortin receptor 4 expressed in human T-REx-293 cells using low doxycycline assessed as stimulation of intracellular cAMP accumulation incubated for 45 mins by LANCE cAMP assay; type: functional, cell-based
# Melanocortin receptor 4 [2] = molecular target: T1, Melanocortin receptor 4; experiment: Displacement of [125I]-NDP-alpha-MSH from human MC4R expressed in HEK2936E cell membrane measured after 16-23 hrs by 1450 microbeta trilux scintillation proximity assay; type: cell membranes
# Melanocortin receptor 3 [3] = molecular target: T2, Melanocortin receptor 3 (Homo sapiens, UniProt P41968); experiment: Displacement of [125I]-NDP-alpha-MSH from human MC3R expressed in HEK2936E cell membrane measured after 16-23 hrs by 1450 microbeta trilux scintillation proximity assay; type: cell membranes
# Melanocortin receptor 4 [4] = molecular target: T1, Melanocortin receptor 4; experiment: Agonist activity at human melanocortin receptor 4 expressed in human T-REx-293 cells using high doxycycline assessed as stimulation of intracellular cAMP accumulation incubated for 45 mins by LANCE cAMP assay; type: functional
# [5] = molecular target: T3, Melanocyte-stimulating hormone receptor (Homo sapiens, UniProt Q01726); experiment: Agonist activity at human melanocortin receptor 1 expressed in human T-Rex-293 cells assessed as stimulation of intracellular cAMP accumulation incubated for 45 mins by LANCE cAMP assay; type: functional, cell-based
# [6] = molecular target: T3, Melanocyte-stimulating hormone receptor; experiment: Displacement of [125I]-NDP-alpha-MSH from human MC1R expressed in HEK2936E cell membrane measured after 16-23 hrs by 1450 microbeta trilux scintillation proximity assay; type: cell membranes
# Melanocortin receptor 5 = Melanocortin receptor 5 (Homo sapiens, UniProt P33032); experiment: Displacement of [125I]-NDP-alpha-MSH from human MC5R expressed in HEK2936E cell membrane measured after 16-23 hrs by 1450 microbeta trilux scintillation proximity assay; type: cell membranes
# Melanocortin receptor 3 [7] = molecular target: T2, Melanocortin receptor 3; experiment: Agonist activity at human melanocortin receptor 3 expressed in human T-REx-293 cells assessed as stimulation of intracellular cAMP accumulation incubated for 45 mins by LANCE cAMP assay; type: functional, cell-based
# Homo sapiens [8] = species: Homo sapiens; experiment: Selectivity index, […] for displacement of [125I]-NDP-alpha-MSH from human MC1R […] for displacement of [125I]-NDP-alpha-MSH from human MC4R by competitive radioligand binding assay
# Homo sapiens [9] = species: Homo sapiens; experiment: Selectivity index, […] for displacement of [125I]-NDP-alpha-MSH from human MC1R […] for displacement of [125I]-NDP-alpha-MSH from human MC3R by competitive radioligand binding assay
# Homo sapiens [10] = species: Homo sapiens; experiment: Selectivity index, […] for displacement of [125I]-NDP-alpha-MSH from human MC1R […] for displacement of [125I]-NDP-alpha-MSH from human MC5R by competitive radioligand binding assay
# T3 sequence (Q01726 whole entry): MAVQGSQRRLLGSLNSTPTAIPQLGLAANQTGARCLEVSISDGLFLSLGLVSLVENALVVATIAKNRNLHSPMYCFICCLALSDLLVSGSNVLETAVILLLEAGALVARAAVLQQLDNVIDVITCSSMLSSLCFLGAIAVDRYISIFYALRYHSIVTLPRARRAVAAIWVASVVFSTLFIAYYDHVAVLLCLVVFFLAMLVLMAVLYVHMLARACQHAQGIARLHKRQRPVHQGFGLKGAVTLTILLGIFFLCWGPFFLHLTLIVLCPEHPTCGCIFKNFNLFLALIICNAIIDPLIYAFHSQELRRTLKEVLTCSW
# Chain of Melanocortin receptor 5 (P33032 whole entry): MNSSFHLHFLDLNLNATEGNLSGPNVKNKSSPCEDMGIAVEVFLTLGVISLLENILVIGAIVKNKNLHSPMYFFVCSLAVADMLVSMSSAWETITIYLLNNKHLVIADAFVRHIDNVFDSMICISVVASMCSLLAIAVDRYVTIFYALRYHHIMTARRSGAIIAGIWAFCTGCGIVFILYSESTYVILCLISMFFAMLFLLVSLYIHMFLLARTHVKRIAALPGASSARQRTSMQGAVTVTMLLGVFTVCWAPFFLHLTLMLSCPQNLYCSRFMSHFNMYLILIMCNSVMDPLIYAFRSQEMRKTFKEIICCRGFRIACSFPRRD
# T1 sequence (P32245 whole entry): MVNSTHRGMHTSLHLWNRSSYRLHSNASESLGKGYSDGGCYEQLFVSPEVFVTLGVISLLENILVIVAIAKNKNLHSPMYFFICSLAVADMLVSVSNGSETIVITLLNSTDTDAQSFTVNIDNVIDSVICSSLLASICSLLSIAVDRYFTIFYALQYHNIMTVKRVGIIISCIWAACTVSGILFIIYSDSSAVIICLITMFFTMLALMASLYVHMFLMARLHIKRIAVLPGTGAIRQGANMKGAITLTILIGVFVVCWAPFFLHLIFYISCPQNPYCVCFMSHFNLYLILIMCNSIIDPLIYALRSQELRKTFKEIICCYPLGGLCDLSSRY
# T2 sequence (P41968 whole entry): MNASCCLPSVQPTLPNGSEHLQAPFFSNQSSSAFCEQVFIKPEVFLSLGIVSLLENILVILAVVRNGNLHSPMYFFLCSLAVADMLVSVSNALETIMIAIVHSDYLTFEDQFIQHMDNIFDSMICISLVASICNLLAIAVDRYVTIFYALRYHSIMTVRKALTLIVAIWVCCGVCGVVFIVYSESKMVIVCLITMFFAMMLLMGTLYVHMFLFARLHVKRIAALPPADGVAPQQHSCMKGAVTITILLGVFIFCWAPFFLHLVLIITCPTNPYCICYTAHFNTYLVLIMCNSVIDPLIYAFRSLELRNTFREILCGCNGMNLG
SMILES,pEC50 (Melanocortin receptor 4 [1]),pKi (Melanocortin receptor 4 [2]),pKi (Melanocortin receptor 3 [3]),pEC50 (Melanocortin receptor 4 [4]),pEC50 [5],pKi [6],pIC50 (Melanocortin receptor 5),pEC50 (Melanocortin receptor 3 [7]),Ratio (Homo sapiens [8]),Ratio (Homo sapiens [9]),Ratio (Homo sapiens [10])
CC[C@H](C)[C@@H]1NC(=O)[C@@H]2CCCN2C(=O)[C@H](Cc2c[nH]c3ccccc23)NC(=O)[C@H](CCCNC(=N)N)N(C)C(=O)[C@@H](Cc2ccc3ccccc3c2)NC(=O)[C@@H]2CCCN2C(=O)[C@H](Cc2c[nH]c3ccccc23)NC(=O)[C@@H]2CSSC[C@H](NC1=O)C(=O)N[C@@H](Cc1c[nH]cn1)C(=O)N[C@H](Cc1ccccc1)C(=O)N[C@@H](CCCNC(=N)N)C(=O)N[C@@H](Cc1c[nH]c3ccccc13)C(=O)N[C@@H](C)C(=O)N2,7.50,8.10,6.39,8.98,8.81,8.01,6.69,7.87,–,–,–
CC[C@H](C)[C@@H]1NC(=O)[C@@H]2CCCN2C(=O)[C@H](Cc2c[nH]c3ccccc23)NC(=O)[C@H](CCCNC(=N)N)N(C)C(=O)[C@@H](Cc2ccccc2)NC(=O)[C@H](Cc2c[nH]cn2)NC(=O)[C@H]([C@@H](C)O)NC(=O)[C@@H]2CSSC[C@H](NC1=O)C(=O)N[C@@H](Cc1c[nH]cn1)C(=O)N[C@H](Cc1ccccc1)C(=O)N(C)[C@@H](CCCNC(=N)N)C(=O)N(C)[C@@H](Cc1c[nH]c3ccccc13)C(=O)N[C@@H](CCCNC(=N)N)C(=O)N2,7.58,7.52,7.29,9.01,> 10.30,10.16,6.78,8.91,30,30,3000
CC(=O)N[C@H]1CSSC[C@@H](C(N)=O)NC(=O)[C@H](CCCNC(=N)N)NC(=O)[C@H](Cc2c[nH]c3ccccc23)N(C)C(=O)[C@H](CCCNC(=N)N)N(C)C(=O)[C@H](Cc2ccccc2)NC(=O)[C@H](Cc2c[nH]cn2)NC1=O (Ac-CHF[NMeR][NMeW]RC-NH2; disulfide 1-7),5.44,5.69,5.50,7.20,8.26,7.25,5.00,6.40,–,–,–
CC[C@H](C)[C@@H]1NC(=O)[C@@H]2CCCN2C(=O)[C@H](Cc2c[nH]c3ccccc23)NC(=O)[C@H](CCCNC(=N)N)N(C)C(=O)[C@@H](Cc2ccccc2)NC(=O)[C@H](Cc2c[nH]cn2)NC(=O)[C@H](CCC(=O)O)NC(=O)[C@@H]2CSSC[C@H](NC1=O)C(=O)N[C@@H](Cc1c[nH]cn1)C(=O)N[C@H](Cc1ccccc1)C(=O)N(C)[C@@H](CCCNC(=N)N)C(=O)N(C)[C@@H](Cc1c[nH]c3ccccc13)C(=O)N[C@@H](CCCNC(=N)N)C(=O)N2,7.34,7.19,6.98,8.56,10.08,9.83,6.42,8.45,–,–,–
CC[C@H](C)[C@@H]1NC(=O)[C@@H]2CCCN2C(=O)[C@H](Cc2c[nH]c3ccccc23)NC(=O)[C@H](CCCNC(=N)N)N(C)C(=O)[C@@H](Cc2ccccc2)NC(=O)[C@H](Cc2c[nH]cn2)NC(=O)[C@H](CC(=O)O)NC(=O)[C@@H]2CSSC[C@H](NC1=O)C(=O)N[C@@H](Cc1c[nH]cn1)C(=O)N[C@H](Cc1ccccc1)C(=O)N(C)[C@@H](CCCNC(=N)N)C(=O)N(C)[C@@H](Cc1c[nH]c3ccccc13)C(=O)N[C@@H](CCCNC(=N)N)C(=O)N2,7.64,6.86,6.32,8.89,9.96,9.10,5.70,7.95,–,–,–
C[C@@H]1NC(=O)[C@H](Cc2c[nH]c3ccccc23)NC(=O)[C@H](CCCNC(=N)N)NC(=O)[C@@H](Cc2ccccc2)NC(=O)[C@H](Cc2c[nH]cn2)NC(=O)[C@@H]2CSSC[C@H](NC1=O)C(=O)N[C@@H]([C@@H](C)O)C(=O)N[C@@H](Cc1c[nH]cn1)C(=O)N[C@H](Cc1ccccc1)C(=O)N(C)[C@@H](CCCNC(=N)N)C(=O)N[C@@H](Cc1c[nH]c3ccccc13)C(=O)N1CCC[C@H]1C(=O)N[C@@H](Cc1ccccc1)C(=O)N2,8.17,7.44,6.52,9.27,9.16,8.40,6.29,8.18,–,–,–
